Results on 1 compound are retold here after PMC10460054, “Multiplex Quantitative Analysis of 9 Compounds of Scutellaria baicalensis Georgi in the Plasma of Respiratory Syncytial Virus-Infected Mice Based on HPLC-MS/MS and Pharmacodynamic Effect Correlation Analysis” (Molecules, 2023).

Molecules are shown by their SMILES. In brackets after ≈: the same amount, converted by molar mass.

Data set [1] can be described thus: Stability of 9 compounds in mouse plasma under storage conditions. The class given is in vitro ADME. The settings on record: n = 6; for Stability 3-Freeze-Thaw Cycles RE: 3 times repeated freeze-thaw at −80 °C; for Stability Short-Term RE: 12 h at 4 °C; for Stability Long-Term RE: −20 °C for 20 days.
The nature of data set [2]: HPLC-MS/MS quantification of 9 compounds in plasma of RSV-infected mice after Scutellaria baicalensis Georgi administration. The class given is in vivo, BALB/c mice. Further details: drug-containing plasma content: unit not given here. The note with it: for drug-containing plasma content: RSV-infected mice, mean ± SD, n = 6. The method, then: The study employed a Vanquish high-performance liquid chromatograph for chromatographic separation, with a HALO C18 column (2.1 × 100 mm, 2.7 μm) as the chromatographic column.
Mass spectrometry was performed using a quadrupole-electrostatic field orbitrap desktop mass spectrometer equipped with an electrospray ion source (ESI). The ESI parameters were set as follows: the pyrolysis voltage was 3.0 kV, the auxiliary gas flow rate was 10 mL/min, the ion transport tube temperature was 350 °C, the auxiliary gas temperature was 350 °C, and the sheath gas flow rate was 45 L/min. Quantitative analysis was performed using the selective ion detection (SIM) mode (Table S1).
Male BALB/c mice, aged 2 weeks and weighing 10–12 g, were chosen for this study. They were acclimatized for 2 days and then randomly assigned to one of five groups: blank (C), model (M), positive control ribavirin (Y1), positive control lianhua qingwen granules (Y2), and Scutellaria baicalensis Georgi administration (H1-H12). Each group consisted of six mice, and their weights were recorded. The mice were pre-administered for 2 days, and on the third day, RSV virus (TCID50 = 10^−6) was inoculated through intranasal infection at a volume of 35 μL per mouse. The blank group was inoculated with normal saline of the same volume. After the inoculation of the RSV virus, the blank and model groups were given distilled water by gavage, while the drug-administered groups were given an aqueous extract of Scutellaria baicalensis Georgi (10 µL/g) once a day for 3 days. The mice were observed daily for their mental status, hair color, diet, and body weight. […] It was then centrifuged at 3000 r/min for 10 min, and the upper layer of plasma was stored at −80℃. Lung tissues were weighed, the lung index was calculated, and the lung tissues were stored in the refrigerator at −80 °C for freezing.
The plasma sample (200 μL) was processed in a 5 mL tube. Subsequently, 10 μL of 5% formic acid and 20 μL of 2 mol/L hydrochloric acid were added, followed by vortexing for 1 min with 10 μL of internal standard solution (100 ng/mL tinidazole). The extraction was completed by adding 2000 μL of acetonitrile solvent and vortexing for 2 min. The mixture was then centrifuged at 12,000 r/min at 4 °C for 10 min, and the supernatant solution was collected in a new centrifuge tube. The supernatant solution was dried by nitrogen at room temperature before being redissolved in 50 μL of 70% acetonitrile solution containing 0.1% formic acid. After vortexing for 1 min, the solution was centrifuged at 12,000 r/min at 4 °C for 10 min, and the resulting supernatant was injected for analysis. The injection volume was 3 μL.
The drug-containing plasma at different time points was subjected to sample treatment. The HPLC-MS/MS analysis method was used to quantitatively detect the 9 compounds in the ion detection (SIM) mode. According to the relative peak area value = index peak area/internal standard peak area, the corresponding concentration value was calculated by substituting the standard curve of each component.

For another data set, the system named is RSV. The settings on record: cited from earlier work.
Setting [3] is: high QC (20,000 or 10,000 ng/mL).
Setting [4] is: RSV-infected mice after Scutellaria baicalensis Georgi administration, double peak phenomenon.

Consider `COc1c(O)cc(O)c2c(=O)cc(-c3ccccc3)oc12` [Wogonin], for which the “Stability 3-Freeze-Thaw Cycles RE” value is on record as 12.89% in data set [1] (setting [3]), −11.16% in data set [1] (low QC (12.5 or 25.6 ng/mL)) and 9.82% in data set [1] (medium QC (320 or 160 ng/mL)). Besides, the “Stability Short-Term RE” value in data set [1] (setting [3]) was 8.46%; in data set [1] (low QC (12.5 or 25.6 ng/mL)) it was −9.77%; in data set [1] (medium QC (320 or 160 ng/mL)), 11.75%. The “Stability Long-Term RE” value in data set [1] (setting [3]) was 8.46%; in data set [1] (low QC (12.5 or 25.6 ng/mL)) it was −13.33%; in data set [1] (medium QC (320 or 160 ng/mL)), 11.75%. In data set [2] (setting [4]), the “time of highest plasma concentration, first peak” value is reported as 0.167 h. The “time of highest plasma concentration, second peak” value in data set [2] (setting [4]) came to 6 h. For the same compound, the drug-containing plasma content in data set [2] (0.083 h after last gavage of Scutellaria baicalensis Georgi extract) turned out to be 344.59± 1.64; in data set [2] (0.167 h after last gavage of Scutellaria baicalensis Georgi extract), 981.37± 13.72; in data set [2] (0.25 h after last gavage of Scutellaria baicalensis Georgi extract) it was 471.39± 1.78; in data set [2] (0.5 h after last gavage of Scutellaria baicalensis Georgi extract) it was 222.21± 6.76; in data set [2] (1 h after last gavage of Scutellaria baicalensis Georgi extract), 181.04± 4.74; in data set [2] (2 h after last gavage of Scutellaria baicalensis Georgi extract) it was 10.35± 1.79. Moreover, the drug-containing plasma content was determined as 71.39± 17.8 in data set [2] (4 h after last gavage of Scutellaria baicalensis Georgi extract); 2664.55± 129.18 in data set [2] (6 h after last gavage of Scutellaria baicalensis Georgi extract); 97.31± 2.71 in data set [2] (8 h after last gavage of Scutellaria baicalensis Georgi extract); 14.65± 8.42 in data set [2] (10 h after last gavage of Scutellaria baicalensis Georgi extract); 3.41± 5.28 in data set [2] (12 h after last gavage of Scutellaria baicalensis Georgi extract); 0 in data set [2] (24 h after last gavage of Scutellaria baicalensis Georgi extract). Moreover, in the data set on RSV, the “IC50 against RSV” value was 7.4 µg/mL (≈ 26 µM).
